Experimental data from patent US10849863B2, “Compounds for treating cancer, for administering, and for pharmaceutical compositions” (UNIVERSITY OF LOUISVILLE RESEARCH FOUNDATION, INC., priority 2011, dated 2020).

How the values were obtained:
[1] = test system: SK-MEL-28 cells; assay: AlamarBlue viability assay, SK-MEL-28 cells; type: cell-based, human; conditions: 32 h (FIG. 10)
Description: (§1) The method used for the viability assay follows. Cells were seeded in 96-well plates for measuring cell growth during treatment by the tested compound using the AlamarBlue fluorescence assay (Biosource International, Inc., Camarillo, Calif.). AlamarBlue (resazurin) is a soluble, non-toxic dye used to monitor the functional electron transport chain of a viable cell by reduction of the dye from its oxidized, non-fluorescent (blue) state to the reduced, fluorescent (pink) state (resorufin). AlamarBlue was added six hours prior to the desired time point in an amount equal to 10% (v/v) of the culture volume, and the plates were returned to the incubator. At the end of the six hour incubation, the amount of AlamarBlue reduction was measured using a fluorometric plate reader ([…]). The plate reader was blanked by reading the fluorescence of cell free medium supplemented with AlamarBlue (States et al., Toxicol. Appl. Pharmacol., Vol. 180, pages 83-91 (2002)). Data are reported as a percentage of the untreated control. Three independent experiments were analyzed and results are shown as average±standard deviation.

[2] = test system: HeLa cells; assay: Clonogenic viability assay, HeLa cells; type: cell-based, human; conditions: for colony formation (clonogenic cytotoxicity): Hela cells (paclitaxel sensitive), colonies counted after 10 days (FIG. 6A)
Description: (§2) Clonogenic assays are used to determine the impact of a test compositions on the ability of cells to replicate. Cells are plated at cloning densities (100 and 500 cells per well in a 6-well plate; 3 wells of each cell number), and allowed to attach and stabilize overnight. Cells are then treated in dose-response experiments with test composition(s) (one concentration of test composition per plate) and incubated for 7-10 days to allow colonies of >30 cells to form. Colonies are stained with crystal violet and counted. Colony forming ability is then calculated as a percent of control by setting the mean number of colonies per well of cells treated with vehicle (0.1% DMSO) equal to 100 percent.

[3] = test system: HeLa cells; assay: Mitotic index and mitotic catastrophe index determination (mitotic spread assay), HeLa cells; type: cell-based, human; conditions: for percent of nuclei present as clean mitotic spreads (mitotic index) / percentage of nuclei presenting as mitotic catastrophe: 60 μM T-8 or 10 μM T-3, 24 h, vs DMSO control, p<0.05 (FIG. 4)
Description: (§3) Cells were harvested for mitotic index analysis by trypsinization. Media, wash, and trypsinized cells were collected together and centrifuged to pellet all the cells. Cells were resuspended in 150 mL serum free media and 2.5 mL 0.4% KCl was added. The suspension was incubated for 10 minutes at 37° C. Methanol:acetic acid fixative solution (3:1, v/v) was then added to 2% (v/v) and cells were collected by centrifugation. Cells were resuspended in 2.5 mL fixative solution and fixed at room temperature for 20 minutes. Samples were centrifuged; pellets were resuspended in 0.5 mL fixative and chilled on ice for one hour. Aliquots of the suspensions were dropped onto slides (two slides per sample), air dried, and stained with Wright Giemsa solution (States et al., Toxicol. Appl. Pharmacol., Vol. 180, pages 83-91 (2002); Taylor et al., J. Pharmacol. Exp. Ther., Vol. 318, pages 142-151 (2006)). Slides were examined under a microscope and at least 200 cells were counted on each slide for determination of mitotic index and mitotic catastrophe index. Only cells with distinct interphase nuclei appearance (panel Q from FIG. 2), metaphase spread appearance (panel S from FIG. 2), or mitotic catastrophe appearance (panel T from FIG. 2) were counted. Mitotic index and mitotic catastrophe index were determined using the following formula: Mitotic index=(cells with mitotic spread appearance as exemplified in panel S of FIG. 2)/(total number of counted cells) Mitotic catastrophe index=(cells with mitotic catastrophe appearance as exemplified in panel T of FIG. 2)/(total number of counted cells)
Three independent experiments were analyzed. DAPI stain in mounting media (Molecular Probes) added directly to the slides was used to identify DNA in interphase nuclei, mitotic spreads, mitotic catastrophe, and nuclear fragmentation by fluorescence microscopy.
Test compositions T-1 to T-9 in Table 1 were tested for their ability to induce mitotic arrest using a mitotic spread assay because it can also be used to score for mitotic catastrophe (Taylor et al., J. Pharmacol. Exp. Ther., Vol. 318, Pages 142-151 (2006); Taylor et al., Toxicol. Appl. Pharmacol., Vol. 230, Pages 235-246 (2008)). […] In these tests, a single concentration of each test composition was tested based on cytotoxicity results of FIG. 1 and on results of observational studies to determine the dose and time course of morphological changes induced (data not shown). The concentrations chosen were the minimum concentrations required to induce <10% survival and morphological changes at 16-24 hours.

[4] = test system: SK-MEL-28 cells; assay: Clonogenic viability assay, SK-MEL-28 cells; type: cell-based, human; conditions: SK-MEL-28 cells (paclitaxel resistant); colonies counted after 10 days (FIG. 6B)
Description: as §2

[5] = test system: HeLa cells; assay: AlamarBlue viability assay, HeLa cells; type: cell-based, human; conditions: for effectiveness at reducing viability (Alamar Blue), rank among T-8, T-13, T-14: 32 h (FIG. 8A)
Description: (§4) The test compositions in Table 1 were tested first for their ability to induce cytotoxicity in dose response curves using an AlamarBlue assay using two cancer cell lines.
as §1

[6] = test system: GM0637 cells; assay: AlamarBlue viability assay, GM0637 cells; type: cell-based, human; conditions: 32 h (FIG. 10)
Description: as §1

[7] = test system: tGM24 cells; assay: Visual assessment of cytotoxicity, tGM24 cells; type: cell-based, human
Source text: (§5) The cytotoxicity of the compounds were initially assessed visually and by photomicroscopy. Visual inspection of dose response experiments over a protracted time course provides valuable information on the responses of cells to the treatments. Phase contrast microscopy allows one to assess whether cells are undergoing mitotic arrest and/or apoptosis by their altered morphology. Mitotic cells rounded up with smooth membranes and often condensed chromosomes aligned at a metaphase plate were clearly visible. […] Cells were plated in 24-well plates and allowed to attach and stabilize overnight. Cells were then treated with compounds in dose response and photomicrographs were taken at various time points over 2 days. Photographs were assembled in composite figures showing dose response at a given time point.

[8] = test system: tGM24 cells; assay: AlamarBlue viability assay, tGM24 cells; type: cell-based, human; conditions: 32 h (FIG. 10)
Description: as §1

[9] = test system: SK-MEL-28 cells; assay: Visual assessment of cytotoxicity, SK-MEL-28 cells; type: cell-based, human; conditions: for rounded up cells in mitosis (visual assessment): SK-MEL-28 cells (paclitaxel resistant), 24-well plate (FIG. 5B)
Source text: as §5

[10] = test system: GM0637 cells; assay: Visual assessment of cytotoxicity, GM0637 cells; type: cell-based; conditions: GM0637 (SV40-transformed human skin fibroblasts); 49 h (FIG. 9)
Source text: as §5

[11] = test system: A375 cells; assay: AlamarBlue viability assay, A375 cells; type: cell-based, human; conditions: 32 h (FIG. 8B)
Description: as §4, §1

[12] = test system: HeLa cells; assay: Visual assessment of cytotoxicity, HeLa cells; type: cell-based, human; conditions: for rounded up cells in mitosis (visual assessment): HeLa cells (paclitaxel sensitive), 24-well plate (FIG. 5A)
Source text: as §5

[13] = test system: A375 cells; assay: Mitotic index and mitotic catastrophe index determination (mitotic spread assay), A375 cells; type: cell-based, human; conditions: selected concentrations (1-10 μM), eighteen hours, among T-1 to T-9 (FIG. 3)
Description: as §3, with “Aliquots of the suspensions were dropped onto slides (two slides per sample), air dried, and stained with Wright Giemsa solution (States et al., Toxicol. Appl. Pharmacol., Vol. 180, pages 83-91 (2002); Taylor et al., J. Pharmacol. Exp. Ther., Vol. 318, pages 142-151 (2006)).” left out
Three independent experiments were analyzed. […]

[14] = tGM24 normal diploid cells, 49 h (FIG. 9)

| Structure (SMILES) | colony formation (clonogenic cytotoxicity) [2] | colony formation (clonogenic cytotoxicity) [4] | effectiveness at reducing viability (Alamar Blue), rank among T-8, T-13, T-14 [5] | effectiveness at reducing viability (Alamar Blue), rank among T-8, T-13, T-14 [11] | rounded up cells in mitosis (visual assessment) [9] | rounded up cells in mitosis (visual assessment) [12] | further results |
| --- | --- | --- | --- | --- | --- | --- | --- |
| Cl.OC(CNC1CCCC1)COCCOc1ccc(Br)cc1 (racemic) [T-8] | decreased colony formation | decreased colony formation | most effective | most effective | – | – | cytotoxicity (Alamar Blue), sensitivity compared across cell lines [1]: moderate sensitivity; percent of nuclei present as clean mitotic spreads (mitotic index) [3]: decreased; percentage of nuclei presenting as mitotic catastrophe [3]: higher percentage; cytotoxicity (Alamar Blue), sensitivity compared across cell lines ([5]; 32 h (FIG. 10)): most effective; cytotoxicity (Alamar Blue), sensitivity compared across cell lines [6]: moderate sensitivity; selectivity for carcinoma cells and transformed cells compared to normal diploid cells ([7]; SK-MEL-28, HeLa, GM0637 vs tGM24, visual assessment (FIG. 9)): selectivity of T-8 for carcinoma cells and transformed cells; accumulation of mitotic cells and apoptotic cells (visual assessment) ([7]; tGM24 (telomerase immortalized human diploid skin fibroblasts), 49 h (FIG. 9)): not in tGM24; increase in cell number (visual assessment) ([7]; tGM24, 49 h (FIG. 9)): less apparent; cell death of normal diploid cells (visual assessment) [7, 14]: not observed; growth of normal diploid cells (visual assessment) [7, 14]: appeared to be inhibited; cytotoxicity (Alamar Blue), sensitivity compared across cell lines [8]: relatively resistant; accumulation of mitotic cells and apoptotic cells (visual assessment) ([9]; SK-MEL-28 (paclitaxel resistant human melanoma), 49 h (FIG. 9)): accumulated; accumulation of mitotic cells and apoptotic cells (visual assessment) [10]: accumulated; accumulation of mitotic cells and apoptotic cells (visual assessment) ([12]; HeLa (paclitaxel sensitive human cervical carcinoma), 49 h (FIG. 9)): accumulated |
| COc1cccc(NC2=NC3(CCCCC3)N=C(N)N2)c1 [T-11] | decreased colony formation | – | – | – | less effect | less effect | relative effectiveness in decreasing colony formation ([2]; Hela cells, among T-3, T-8, T-10, T-11 (FIG. 6A)): least effective |
| CCc1ccc(OCCOCC(O)CNC2CCCC2)cc1.Cl (racemic) [T-13] | – | – | followed by T-13 | followed by T-13 | – | – | – |
| CC(C)NCC(O)COCCOc1ccc(Cl)cc1.Cl (racemic) [T-14] | – | – | least efficacy | least efficacy | – | – | – |
| CCCCOc1ccc(NC2=NC3(CCCC3)N=C(N)N2)cc1 [T-10] | decreased colony formation | decreased colony formation | – | – | at slightly higher concentrations | at slightly higher concentrations | – |
| COc1ccc(NC2=NC3(CCCC3)N=C(N)N2)cc1 [T-12] | – | – | – | – | less effect | less effect | – |
| CCCCOc1ccc(NC2=NC3(CCCCC3)N=C(N)N2)cc1 [T-3] | decreased colony formation | decreased colony formation | – | – | accumulate | accumulate | percent of nuclei present as clean mitotic spreads (mitotic index) [3]: increased; percentage of nuclei presenting as mitotic catastrophe [3]: higher percentage; mitotic index ([3]; selected concentrations (1-10 μM), twice the concentration used for A375, eighteen hours, among T-1 to T-9 (FIG. 3)): highest mitotic index; mitotic index [13]: highest mitotic index |
